Test results from patent publication US10759740B2, “Antibacterial agents” (Rutgers, The State University of New Jersey, priority 2016, dated 2020).

Tests used:
[1] = test system: G. vaginalis biofilm formation; test: Minimum biofilm inhibition concentration (MIC-B), crystal violet; type: cell-based, Gardnerella vaginalis; details: 48 h, vs untreated control, FIG. 7
Protocol: The MIC-B50 of an antimicrobial is defined as the lowest concentration of the antimicrobial that inhibits 50% of treated biofilm compared to the untreated one (control), while MIC-B90 was defined as the minimum biofilm inhibitory concentration that inhibits 90% (Sandoe et al., 2006. J Antimicrob Chemother 57:767-770). G. vaginalis cells were grown overnight in sBHI broth anaerobically at 37° C. The overnight culture was diluted in BHIG broth 1:100 (v:v) to achieve ˜10^6 CFU/ml for the biofilm inhibition assay. The CAms were diluted twofold with BHIG into a 96-well tissue culture microplate (Falcon, Corning Incorporated, Corning, N.Y., USA) with a final volume of 100 μl in each well. Aliquots of 100 μl of diluted cell suspensions at 10^6 CFU/ml were added separately to different concentrations of CAms in a 96-well tissue culture microplate. The microplate was incubated for 48 h at 37° C. under anaerobic conditions. After incubation, the number of non-adherent bacterial cells was counted using a spot plate method and compared with the number of cells of the non-treated control. Then, the intact biofilm was stained with 0.1% crystal violet.
This method was performed as described by Borucki et al. with minor modifications (Borucki et al., 2003. Appl Environ Microbiol 69:7336-7342). Briefly, after counting the non-adherent cells, the biofilm was fixed at 60° C. for 60 min. in an inverted position using an incubator (New Brunswick Scientific Co., Inc., NJ, USA). In each well, 125 μl of 0.1% crystal violet was added and left at room temperature for 20 min. Each well was then rinsed three to four times with 200 μl of ddH2O and left for 15 min. to dry at room temperature. To solubilize the biofilm-stained CV, 200 μl of 95% ethanol in water was added and the microplate was incubated at 4° C. for 30 min. One hundred microliter samples of solubilized CV were transferred to a new flat-bottomed 96-well microplate. The absorbance of each sample was measured using a plate reader at 595 nm (Model 550, Bio-Rad Laboratories, Hercules, Calif., USA).

[2] = test system: G. vaginalis pre-formed biofilm; test: Minimum biofilm bactericidal concentration (MBC-B); type: cell-based, Gardnerella vaginalis; details: 24 h, ≥3 log reduction
Protocol: (§1) This assay was performed according to Algburi et al. (Algburi et al., 2015. Path Dis 73(5)) with minor modifications: the overnight-grown G. vaginalis was diluted to approximately 10^7 CFU/ml. For the biofilm formation assay, aliquots of 200 μl were added into a 96-well tissue culture microplate, sealed by amplification tape (Nalge Nunc International, Rochester, N.Y., USA) and incubated for 24-36 h at 37° C. After incubation, the planktonic cells were removed by gently washing the biofilm twice with 200 μl of fresh broth. The biofilm was then treated with 200 μl of a predetermined concentration of the tested compound. The microplate was incubated for 24 h at 37° C. under anaerobic conditions. After incubation, the antimicrobials (supernatant) were discarded and the biofilm was washed twice with fresh BHIG broth. The biofilm was then disrupted by vigorous pipetting, in order to determine the number of biofilm-associated cells using the spot plate method.

[3] = test system: L. plantarum biofilm; test: Minimum biofilm bactericidal concentration (MBC-B); type: cell-based, Lactobacillus plantarum; details: pre-formed biofilm, ≥3 log reduction
Protocol: (§2) G. vaginalis ATCC 14019 strain was grown overnight in Brain Heart Infusion broth (Difco, Sparks, Md.) supplemented with 3% horse serum (sBHI) (JRH Biosciences, KS), while BHI supplemented with 1% glucose (BHIG) was used for biofilm formation assays. Each experiment using G. vaginalis was performed anaerobically (10% hydrogen, 5% carbon dioxide, and 85% nitrogen) within anaerobic glove boxes (Coy Laboratory Products, Inc., Grass Lake, Mich., USA). Three species of vaginal Lactobacillus were used in this study to evaluate the possible harmful effects of CAms on beneficial bacteria: Lactobacillus plantarum ATCC 39268, Lactobacillus rhamnosus 160 (provided by Dr. Aroutcheva, Rush University Medical Center) and Lactobacillus gasseri ATCC 33323; all were grown for 18-24 h in DeMan, Rogosa and Sharpe broth (MRS Difco B D, Franklin Lakes, N.J., USA) under aerobic conditions at 37° C. For lactobacilli biofilm formation, MRS broth supplemented with 1% glucose and 2% sucrose (Fisher Scientific, Waltham, Mass., USA) was utilized.
as §1

[4] = test system: L. gasseri biofilm; test: Minimum biofilm bactericidal concentration (MBC-B); type: cell-based, Lactobacillus gasseri; details: pre-formed biofilm, ≥3 log reduction
Protocol: as §2, §1

[5] = test system: planktonic cells of G. vaginalis; test: Checkerboard assay, planktonic cells; type: cell-based, Gardnerella vaginalis; details: for MIC of CAm in combination with metronidazole: 24 h; for MIC: read-out: MIC when used alone
Protocol: To evaluate the potential effectiveness of the antimicrobial combinations on planktonic and biofilm cells, a checkerboard assay was performed following Algburi et al. (Algburi et al., 2015. Path Dis 73(5)) with minor modifications. For planktonic cells, the overnight grown G. vaginalis was diluted to approximately 10^6 CFU/ml. Each antimicrobial agent was diluted twofold with sBHI broth into two separate 96-well non-tissue culture microplates. From each dilution of antimicrobial B, 50 μl was added horizontally over 50 μl of antimicrobial A. Then, 100 μl of bacterial suspension (10^6 CFU/ml) was separately added to the predetermined concentration of antimicrobial combinations. The MIC of each combination was determined after 24 h of incubation.
Isobolograms were used to compare the MIC and MBC-B values of each antimicrobial alone with its MIC and MBC-B values in combination with other antimicrobials. The point on the axis (X) refers to MIC or MBC-B values of the first antimicrobial with the coordinates (0, x), and the point on the axis (Y) represents the MIC or MBC-B values of the second antimicrobial with the coordinates (y, 0) when they used alone. The two MIC or MBCs-B values are connected by a dashed line (Turovskiy Y, Chikindas M L. 2011 Probiotics Antimicrob Proteins 3:144-149). The MICs or MBCs-B of each antimicrobial combination are plotted as dots on the graph. Results are expressed according to the locations of these dots from the line that connects MICs or MBCs-B of the first and second antimicrobials. When MICs or MBCs-B values are located under the line, the two combining antimicrobials are synergized, but antagonized against the tested microorganism when these dots of interaction are above. An additive effect is observed when these dots are located on the line.

SMILES | MIC-B: concentration preventing 50% or >50% of biofilm formation [1] | MBC-B G. vaginalis [2] | MBC-B L. plantarum [3] | MBC-B L. gasseri [4] | MIC of CAm in combination with metronidazole [5] | MIC [5]
CCCCCCCCCC(=O)OC(C(=O)NCCN)C(OC(=O)CCCCCCCCC)C(=O)NCCN.Cl.Cl (stereo not drawn) [8b] | 3.2 µM | 425.6 µM | >810 µM | 810 µM | 0.2 µM | 10 µM
CCCCCCCC(=O)OC(C(=O)NCCN)C(OC(=O)CCCCCCC)C(=O)NCCN.Cl.Cl (stereo not drawn) [8a] | 7.2 µM | 117.6 µM | >890 µM | >890 µM | 3.4 µM | 24.4 µM
CCCCCCCCCCOC(C(=O)NCCN)C(OCCCCCCCCCC)C(=O)NCCN.Cl.Cl (stereo not drawn) [5b] | 1.6 µM | 425.6 µM | >850 µM | >850 µM | 0.2 µM | 1.1 µM
